Legend:
[1] = target: T1, human SUMO-1_18–97 (SUMO) (Homo sapiens, UniProt P63165); experiment: Fluorescence anisotropy competition assay (FAM-SIM tracer displacement from SUMO); settings: for inhibitory potency relative to the parent SIM peptide (in words): fluorescence anisotropy competition assay, backbone N-methyl scan
Protocol: Fluorescence competition anisotropy data. The parent SIM peptide and its N-methylated variants were each
peptide (50 nM) in Tris-buffered saline (20 mM Tris, pH 8.0, 150 mM NaCl and 0.03% Triton-X).
Tris, 150 mM NaCl, 0.01 % Triton-X, pH 7.4 using 50 nM FAM PEG-SIM tracer and 3 μM SUMO protein.
Inhibitory potencies for N-methylated SIM peptides to SUMO. IC50 values were determined through competition
FA experiments (20 mm Tris, 150 mM NaCl, 0.03% Triton X, pH 8.0).
Competition binding assays were performed in triplicate within 384-well plates (Greiner Bio-one). Competitor
nM, 3 μM, 50 nM final concentrations of competitor, SUMO and tracer respectively). Control wells lacked
tracer. The plates were kept in the dark for at least 30 min before fluorescence polarisation was measured.
Labtech), with excitation at 482 nm (bandwidth = 16 nM) and emission at 530 nm (bandwidth = 40 nm). For
(bandwidth = 20 nM) and emission at 535 nm (bandwidth = 25 nm).
Perependicular (P) and parallel (S) intensities of the control wells were averaged and deducted from each
= Ssample – Sav. control). The total sample intensities (I) and anisotropies (r) were then calculated as follows:
Fluorescence anisotropy values were plotted against competitor peptide concentrations and fit to a logistic
function of the form Y = A2 + (A1 – A2) / (1 + (x/x0)p) for determination of half-maximal inhibitory concentrations
Note: To ensure a set of self-consistent IC50 values for comparison, experiments were performed using a single
batch of protein given subtle batch dependent variations in active concentration of protein.

[2] = target: T1, human SUMO-1_18–97 (SUMO); experiment: Relaxation-based NMR binding kinetics (15N ZZ-exchange for tighter binders, CPMG relaxation dispersion for weaker binders); settings: for koff / kon: pH 7.4
Text: Non-overlapping exchange cross-peaks were evident for a subset of residues when the ^15N magnetizations of the bound and unbound states were mixed following t1 (^15N) evolution (ZZ-exchange spectroscopy). Global fitting of the intensities of auto and cross peaks as a function of mixing time to McConnel equations (Fig. 3c, S8–S11; ESI ^† for methods) gave apparent first-order association k^appon and first-order dissociation koff rates for binding, which were converted to kon and dissociation equilibrium constants (KD).
All NMR spectra acquired using 15N-labelled protein samples were acquired at 5 °C, in 20 mM sodium
phosphate pH 7.4, 150 mM NaCl, 0.02% NaN3, on 750 or 600 MHz Bruker NMR spectrometers.
Protein and peptide NMR spectra were processed with NMRPipe and analysed in CcpNmr analysis.
15N ZZ-exchange spectroscopy
15N ZZ-exchange experiments were performed in an interleaved manner as described previously4 using mixing
times between 10 and 500 ms. Data were fit to a simple 2-state model:
where state A represents unbound SUMO and state B represents SUMO bound to SIM. The time-evolution of
the longitudinal magnetisations during mixing are described by the corresponding McConnel equations:4
𝑧 = 𝑘𝑎𝑝𝑝𝑀𝑏𝑎 ‒ 𝑀𝑏𝑏(𝑘 + 𝑅𝑏)
𝑧 = 𝑘 𝑀𝑏𝑏 ‒ 𝑀𝑏𝑎(𝑘𝑎𝑝𝑝 + 𝑅𝑎)
where is the𝑀𝑎𝑎𝑧 z-magnetization of unbound SUMO, is the𝑀𝑏𝑏𝑧 z-magnetization of bound SUMO, and , 𝑀𝑎𝑏𝑧
𝑧 are the z-magnetizations of the corresponding exchange cross-peaks. are11 the longitudinal relaxation
rates for states A and B, and are𝑜𝑛𝑜𝑓𝑓 the pseudo-first order association and dissociation rates,
respectively. Simple analytical solutions to the above equations are available4 and were used to fit the ZZ-
exchange data. Fitting parameters included , residue𝑜𝑛𝑜𝑓𝑓 specific rates,11 and scaling factors
𝐼𝑎𝑎, 𝐼𝑏𝑏 that incorporate any differences in the relaxation rates of the bound and unbound species. Scaling
factors for the exchange cross-peaks were 𝐼𝑎𝑏, 𝐼𝑏𝑎 not included as these were absent at the start of the mixing
period in all cases. Uncertainties in the fitted parameters were calculated using a Monte-Carlo approach based
on the noise of the experiment. Fitting was performed using in-house scripts written in Python employing the
LmFit module available at https://lmfit.github.io/lmfit-py/.

[3] = target: T1, human SUMO-1_18–97 (SUMO); experiment: Temperature dependence of NMR-derived exchange parameters (Van't Hoff and Eyring analysis); type: binding; design: human SUMO-1_18–97 (SUMO); His tag with TEV site (N, cleaved yes); made in house; settings: 25 °C; for TΔS, Association (activation, kon) / TΔS, Dissociation (activation, koff) / ΔG, Association (activation, kon) / ΔG, Dissociation (activation, koff) / ΔH, Association (activation, kon) / ΔH, Dissociation (activation, koff): Eyring fit, ± SD of fitted parameter (Monte-Carlo), SD
Text: Eyring plots were obtained for the temperature-dependence of the kon and koff rates (Fig. 5d and e), from which the association/dissociation activation enthalpies (ΔH^‡ass/ΔH^‡diss), activation/dissociation entropies (TΔS^‡ass/TΔS^‡diss), and thus activation/dissociation free energies (ΔG^‡ass/ΔG^‡diss), could be determined.

[4] = target: T1, human SUMO-1_18–97 (SUMO); experiment: as above; type: binding; design: human SUMO-1_18–97 (SUMO); His tag with TEV site (N, cleaved yes); made in house; settings: 25 °C; for TΔS, Binding (KD) / ΔH, Binding (KD): Van't Hoff fit, ± SD of fitted parameter (Monte-Carlo), SD

T1 sequence (P63165 18-97): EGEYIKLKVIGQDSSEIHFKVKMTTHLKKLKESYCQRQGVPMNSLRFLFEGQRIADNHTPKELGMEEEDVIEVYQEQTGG

Row | IC50 [1] [µM] | Kd [2] [µM] | koff [2] [s⁻¹] | kon [2] [M⁻¹ s⁻¹] | Structure (SMILES) | further results
1 | 9.4 ± 0.5 | – | – | – | CC[C@H](C)[C@H](NC(=O)[C@H](CCC(=O)O)NC(=O)[C@H](CC(N)=O)N(C)C(=O)[C@H](CC(=O)O)NC(C)=O)C(=O)N[C@@H](CCC(=O)O)C(=O)N[C@H](C(=O)N[C@H](C(=O)N[C@H](C(=O)N[C@H](C(=O)N[C@@H](Cc1c[nH]c2ccccc12)C(=O)N[C@@H](CCC(=O)O)C(=O)N[C@@H](CCCCN)C(=O)N[C@@H](CCCCN)C(N)=O)C(C)C)[C@@H](C)CC)[C@@H](C)CC)C(C)C [Me-Asn2706] | –
2 | 10 ± 0.4 | 13.6 ± 0.5 | 8.95 ± 0.12 | 657000 ± 27000 | CC[C@H](C)[C@H](NC(=O)[C@H](CCC(=O)O)NC(=O)[C@H](CC(N)=O)NC(=O)[C@H](CC(=O)O)NC(C)=O)C(=O)N[C@@H](CCC(=O)O)C(=O)N[C@H](C(=O)N[C@H](C(=O)N[C@H](C(=O)N[C@H](C(=O)N[C@@H](Cc1c[nH]c2ccccc12)C(=O)N[C@@H](CCC(=O)O)C(=O)N[C@@H](CCCCN)C(=O)N(C)[C@@H](CCCCN)C(N)=O)C(C)C)[C@@H](C)CC)[C@@H](C)CC)C(C)C [Me-Lys2717] | –
3 | > 100 | – | – | – | CC[C@H](C)[C@H](NC(=O)[C@H](CCC(=O)O)NC(=O)[C@H](CC(N)=O)NC(=O)[C@H](CC(=O)O)NC(C)=O)C(=O)N[C@@H](CCC(=O)O)C(=O)N[C@H](C(=O)N[C@H](C(=O)N[C@H](C(=O)N(C)[C@H](C(=O)N[C@@H](Cc1c[nH]c2ccccc12)C(=O)N[C@@H](CCC(=O)O)C(=O)N[C@@H](CCCCN)C(=O)N[C@@H](CCCCN)C(N)=O)C(C)C)[C@@H](C)CC)[C@@H](C)CC)C(C)C [Me-Val2713] | inhibitory potency relative to the parent SIM peptide (in words) [1]: significantly diminished inhibitory potency
4 | 12.6 ± 0.5 | – | – | – | CC[C@H](C)[C@H](NC(=O)[C@H](CCC(=O)O)NC(=O)[C@H](CC(N)=O)NC(=O)[C@H](CC(=O)O)N(C)C(C)=O)C(=O)N[C@@H](CCC(=O)O)C(=O)N[C@H](C(=O)N[C@H](C(=O)N[C@H](C(=O)N[C@H](C(=O)N[C@@H](Cc1c[nH]c2ccccc12)C(=O)N[C@@H](CCC(=O)O)C(=O)N[C@@H](CCCCN)C(=O)N[C@@H](CCCCN)C(N)=O)C(C)C)[C@@H](C)CC)[C@@H](C)CC)C(C)C [Me-Asp2705] | –
5 | 31.4 ± 3 | – | – | – | CC[C@H](C)[C@H](NC(=O)[C@@H](NC(=O)[C@H](CCC(=O)O)N(C)C(=O)[C@@H](NC(=O)[C@H](CCC(=O)O)NC(=O)[C@H](CC(N)=O)NC(=O)[C@H](CC(=O)O)NC(C)=O)[C@@H](C)CC)C(C)C)C(=O)N[C@H](C(=O)N[C@H](C(=O)N[C@@H](Cc1c[nH]c2ccccc12)C(=O)N[C@@H](CCC(=O)O)C(=O)N[C@@H](CCCCN)C(=O)N[C@@H](CCCCN)C(N)=O)C(C)C)[C@@H](C)CC [Me-Glu2709] | –
6 | > 100 | – | – | – | CC[C@H](C)[C@H](NC(=O)[C@H](CCC(=O)O)NC(=O)[C@H](CC(N)=O)NC(=O)[C@H](CC(=O)O)NC(C)=O)C(=O)N[C@@H](CCC(=O)O)C(=O)N[C@H](C(=O)N[C@H](C(=O)N[C@H](C(=O)N[C@H](C(=O)N(C)[C@@H](Cc1c[nH]c2ccccc12)C(=O)N[C@@H](CCC(=O)O)C(=O)N[C@@H](CCCCN)C(=O)N[C@@H](CCCCN)C(N)=O)C(C)C)[C@@H](C)CC)[C@@H](C)CC)C(C)C [Me-Trp2714] | inhibitory potency relative to the parent SIM peptide (in words) [1]: significantly diminished inhibitory potency
7 | > 100 | 388 ± 7 | 208 ± 1 | 536000 ± 10000 | CC[C@H](C)[C@H](NC(=O)[C@H](CCC(=O)O)NC(=O)[C@H](CC(N)=O)NC(=O)[C@H](CC(=O)O)NC(C)=O)C(=O)N[C@@H](CCC(=O)O)C(=O)N(C)[C@H](C(=O)N[C@H](C(=O)N[C@H](C(=O)N[C@H](C(=O)N[C@@H](Cc1c[nH]c2ccccc12)C(=O)N[C@@H](CCC(=O)O)C(=O)N[C@@H](CCCCN)C(=O)N[C@@H](CCCCN)C(N)=O)C(C)C)[C@@H](C)CC)[C@@H](C)CC)C(C)C [Me-Val2710] | –
8 | > 100 | 510 ± 40 | 553 ± 17 | 1.09e+06 ± 70000 | CC[C@H](C)[C@H](NC(=O)[C@H](CCC(=O)O)NC(=O)[C@H](CC(N)=O)NC(=O)[C@H](CC(=O)O)NC(C)=O)C(=O)N[C@@H](CCC(=O)O)C(=O)N[C@H](C(=O)N[C@H](C(=O)N[C@H](C(=O)N[C@H](C(=O)N[C@@H](Cc1c[nH]c2ccccc12)C(=O)N[C@@H](CCC(=O)O)C(=O)N(C)[C@@H](CCCCN)C(=O)N[C@@H](CCCCN)C(N)=O)C(C)C)[C@@H](C)CC)[C@@H](C)CC)C(C)C [Me-Lys2716] | TΔS, Association (activation, kon) [3]: 3.11 ± 0.048 kcal/mol; TΔS, Dissociation (activation, koff) [3]: -9.2 ± 0.024 kcal/mol; ΔG, Association (activation, kon) [3]: 8.46 ± 0.072 kcal/mol; ΔG, Dissociation (activation, koff) [3]: 13.5 ± 0.024 kcal/mol; ΔH, Association (activation, kon) [3]: 11.6 ± 0.048 kcal/mol; ΔH, Dissociation (activation, koff) [3]: 4.28 ± 0.024 kcal/mol; TΔS, Binding (KD) [4]: 12.5 ± 0.048 kcal/mol; ΔH, Binding (KD) [4]: 7.5 ± 0.048 kcal/mol
9 | 7.9 ± 1 | 14.5 ± 0.9 | 5.9 ± 0.08 | 410000 ± 28000 | CC[C@H](C)[C@H](NC(=O)[C@H](CCC(=O)O)NC(=O)[C@H](CC(N)=O)NC(=O)[C@H](CC(=O)O)NC(C)=O)C(=O)N[C@@H](CCC(=O)O)C(=O)N[C@H](C(=O)N[C@H](C(=O)N(C)[C@H](C(=O)N[C@H](C(=O)N[C@@H](Cc1c[nH]c2ccccc12)C(=O)N[C@@H](CCC(=O)O)C(=O)N[C@@H](CCCCN)C(=O)N[C@@H](CCCCN)C(N)=O)C(C)C)[C@@H](C)CC)[C@@H](C)CC)C(C)C [Me-Ile2712, Ac-DNEIEVI(NMe)IVWEKK-NH2] | TΔS‡ass more favourable than parent by [3]: ≈ 11 kJ mol^−1; ΔH‡ass more unfavourable than parent by [3]: ≈ 8 kJ mol^−1; TΔS, Association (activation, kon) [3]: 34.78 ± 0.502 kcal/mol; TΔS, Dissociation (activation, koff) [3]: -3.51 ± 0.048 kcal/mol; ΔG, Association (activation, kon) [3]: 6.57 ± 0.526 kcal/mol; ΔG, Dissociation (activation, koff) [3]: 15.5 ± 0.096 kcal/mol; ΔH, Association (activation, kon) [3]: 41.23 ± 0.502 kcal/mol; ΔH, Dissociation (activation, koff) [3]: 12 ± 0.072 kcal/mol; ΔΔG vs. parent (increase in affinity) ([2]; from KD values of 15N ZZ-exchange data at 5 °C): ~0.48 kcal/mol; decrease in ΔGbind relative to parent [4]: 0.72 kcal/mol; increase in enthalpy (ΔHbind) in comparison to the parent SIM peptide [4]: ~2.87 kcal/mol; increase in entropy of binding (TΔSbind) in comparison to the parent SIM peptide [4]: ~3.59 kcal/mol; TΔS, Binding (KD) [4]: 38.67 ± 0.478 kcal/mol; ΔH, Binding (KD) [4]: 29.92 ± 0.048 kcal/mol
10 | 12.4 ± 0.8 | – | – | – | CC[C@H](C)[C@H](NC(=O)[C@@H](NC(=O)[C@H](CCC(=O)O)NC(=O)[C@@H](NC(=O)[C@H](CCC(=O)O)N(C)C(=O)[C@H](CC(N)=O)NC(=O)[C@H](CC(=O)O)NC(C)=O)[C@@H](C)CC)C(C)C)C(=O)N[C@H](C(=O)N[C@H](C(=O)N[C@@H](Cc1c[nH]c2ccccc12)C(=O)N[C@@H](CCC(=O)O)C(=O)N[C@@H](CCCCN)C(=O)N[C@@H](CCCCN)C(N)=O)C(C)C)[C@@H](C)CC [Me-Glu2707] | –
11 | 27.4 ± 1.9 | – | – | – | CC[C@H](C)[C@H](NC(=O)[C@H](CCC(=O)O)NC(=O)[C@H](CC(N)=O)NC(=O)[C@H](CC(=O)O)NC(C)=O)C(=O)N[C@@H](CCC(=O)O)C(=O)N[C@H](C(=O)N[C@H](C(=O)N[C@H](C(=O)N[C@H](C(=O)N[C@@H](Cc1c[nH]c2ccccc12)C(=O)N(C)[C@@H](CCC(=O)O)C(=O)N[C@@H](CCCCN)C(=O)N[C@@H](CCCCN)C(N)=O)C(C)C)[C@@H](C)CC)[C@@H](C)CC)C(C)C [Me-Glu2715] | –
12 | 5.4 ± 0.3 | 14 ± 0.4 | 4.58 ± 0.04 | 327000 ± 9000 | CC[C@H](C)[C@H](NC(=O)[C@@H](NC(=O)[C@H](CCC(=O)O)NC(=O)[C@H]([C@@H](C)CC)N(C)C(=O)[C@H](CCC(=O)O)NC(=O)[C@H](CC(N)=O)NC(=O)[C@H](CC(=O)O)NC(C)=O)C(C)C)C(=O)N[C@H](C(=O)N[C@H](C(=O)N[C@@H](Cc1c[nH]c2ccccc12)C(=O)N[C@@H](CCC(=O)O)C(=O)N[C@@H](CCCCN)C(=O)N[C@@H](CCCCN)C(N)=O)C(C)C)[C@@H](C)CC [Me-Ile2708] | –
13 | > 300 | – | – | – | CC[C@H](C)[C@H](NC(=O)[C@H](CCC(=O)O)NC(=O)[C@H](CC(N)=O)NC(=O)[C@H](CC(=O)O)NC(C)=O)C(=O)N[C@@H](CCC(=O)O)C(=O)N[C@H](C(=O)N(C)[C@H](C(=O)N[C@H](C(=O)N[C@H](C(=O)N[C@@H](Cc1c[nH]c2ccccc12)C(=O)N[C@@H](CCC(=O)O)C(=O)N[C@@H](CCCCN)C(=O)N[C@@H](CCCCN)C(N)=O)C(C)C)[C@@H](C)CC)[C@@H](C)CC)C(C)C [Me-Ile2711, Ac-DNEIEV(NMe)IIVWEKK-NH2] | inhibitory potency relative to the parent SIM peptide (in words) [1]: significantly diminished inhibitory potency
